Where a SMILES comes first, the peptide text is derived from it. [ ]: non-standard residue; d: D form. The star is where a group is joined. pNA = O=[N+]([O-])c1ccc(N*)cc1; Tos = Cc1ccc(S(=O)(=O)*)cc1
How the values were obtained:
[1] = target: plasmin (pig) (Sus scrofa, UniProt P06867); test: Km, Vmax and Vmax/Km of substrates for plasmin (pig); type: biochemical, Porcine (pig); conditions: for Vmax (× 10^-7): TABLE 2, CHA substrates, plasmin (pig), 2,6-xylenol 615 nm; for Vmax (× 10^7): 405 nm
Excerpt: The substrates produced by the above examples were used in the measurement of plasmin as follows: The principle of this measurement comprises quantitatively analyzing the decomposition product p-nitroaniline or 3-carboxy-4-hydroxyaniline produced by the enzymatic hydrolysis, by measuring the absorbance (O.D.) directly at 405 nm in the case of p-nitroaniline and, in the case of the 3-carboxy-4-hydroxyaniline at 615 nm after condensing it with 2,6-xylenol in the presence of an oxidant to develop a color.
For the measurements of these constants, the following method is adopted:
The enzyme and the substrate are mixed in a buffer solution and subjected to the hydrolysis for 30 seconds. The concentration of the substrate [S] is changed and the enzyme concentration is maintained constant. By measuring the absorbance (O.D.), the initial velocity of the hydrolysis can be determined. Where 1/V is plotted as a function of 1/[S], there is obtained a Lineweaver and Burk's linea from which graph the Vmax and Km can be determined.

[2] = target: Kallikrein (KL) (Sus scrofa, UniProt P00752); type: biochemical, Pig; conditions: pH 7.9, 37° C., 10 minutes, 1.0 BAEE-U/ml; for Selectivity KL, absorbance (O.D.) at 645 nm: TABLE 4, CHA substrates, So = 0.54; for Selectivity KL, absorbance (O.D.) at 405 nm: TABLE 3, PNA substrates, So = 0.54 mmole/l
Description: (§1) The specificities of the novelly synthesized substrates were tested by reacting them with various enzymes respectively.
(§2) (1) Substrate solution concentration: 35 mmole/liter H2 O
(§3) (2) Buffer: Tris-hydrochloric acid buffer 50 mmole/l, NaCl 150 mmole/l (0.875%) was employed, and the pH for reaction was as follows depending on the enzyme.
(§4) 2,6-Xylenol 7.0 mmole+NaIO4 1.5 mmole/0.2N KOH
(§5) 0.5 ml of the buffer solution and 0.05 ml of the enzyme reagent were taken into a silicon-treated hard glass test tube or a plastic test tube, and preheated in a constant temperature bath at 37° C. for 5 minutes. Thereafter, 0.1 ml of the substrate solution was added to effect the enzymatic reaction at 37° C. for 10 minutes. Exactly after 10 minutes, 2.5 ml of the reaction terminating solution or the terminating and color developing reagent solution was added to terminate the enzymatic reaction, and after allowing to stand at 25° C. for 10 minutes, the absorbance at 405 nm or 645 nm was measured, in which [drawing 49]

[3] = target: Plasmin (PL) (Sus scrofa, UniProt P06867); type: biochemical, Pig; conditions: pH 7.4, 37° C., 10 minutes, 0.32 CU/ml; for Selectivity PL, absorbance (O.D.) at 645 nm: TABLE 4, CHA substrates, So = 0.54; for Selectivity PL, absorbance (O.D.) at 405 nm: TABLE 3, PNA substrates, So = 0.54 mmole/l
Description: as §2, §3
Plasmin Pig Sigma (U.S.A.)
as §5

[4] = target: Urokinase (UK) (Homo sapiens, UniProt P00749); type: biochemical; conditions: pH 8.2, 37° C., 10 minutes, 1000 IU/ml; for Selectivity UK, absorbance (O.D.) at 645 nm: TABLE 4, CHA substrates, So = 0.54; for Selectivity UK, absorbance (O.D.) at 405 nm: TABLE 3, PNA substrates, So = 0.54 mmole/l
Description: as §1, §2, §3, §4, §5

[5] = target: Factor-Xa (FXa) (Bos taurus, UniProt P00743); type: biochemical, Cow; conditions: pH 8.4, 37° C., 10 minutes, 0.4 U/ml; for Selectivity FXa, absorbance (O.D.) at 645 nm: TABLE 4, CHA substrates, So = 0.54; for Selectivity FXa, absorbance (O.D.) at 405 nm: TABLE 3, PNA substrates, So = 0.54 mmole/l
Description: as §1, §2, §3, §4, §5

[6] = target: Thrombin (TH) (Bos taurus, UniProt P00735); type: biochemical, Cow; conditions: pH 8.4, 37° C., 10 minutes, 1.0 NIH/ml; for Selectivity TH, absorbance (O.D.) at 645 nm: TABLE 4, CHA substrates, So = 0.54; for Selectivity TH, absorbance (O.D.) at 405 nm: TABLE 3, PNA substrates, So = 0.54 mmole/l
Description: as §1, §2, §3, §4, §5

[7] = TABLE 2, V/Km of each sample divided by that of S2251 (so in the source)
[8] = TABLE 1, PNA substrates, plasmin (pig)
[9] = TABLE 1, V/Km of each sample divided by that of S2251

Chain of Plasmin (PL) (P06867 97-809): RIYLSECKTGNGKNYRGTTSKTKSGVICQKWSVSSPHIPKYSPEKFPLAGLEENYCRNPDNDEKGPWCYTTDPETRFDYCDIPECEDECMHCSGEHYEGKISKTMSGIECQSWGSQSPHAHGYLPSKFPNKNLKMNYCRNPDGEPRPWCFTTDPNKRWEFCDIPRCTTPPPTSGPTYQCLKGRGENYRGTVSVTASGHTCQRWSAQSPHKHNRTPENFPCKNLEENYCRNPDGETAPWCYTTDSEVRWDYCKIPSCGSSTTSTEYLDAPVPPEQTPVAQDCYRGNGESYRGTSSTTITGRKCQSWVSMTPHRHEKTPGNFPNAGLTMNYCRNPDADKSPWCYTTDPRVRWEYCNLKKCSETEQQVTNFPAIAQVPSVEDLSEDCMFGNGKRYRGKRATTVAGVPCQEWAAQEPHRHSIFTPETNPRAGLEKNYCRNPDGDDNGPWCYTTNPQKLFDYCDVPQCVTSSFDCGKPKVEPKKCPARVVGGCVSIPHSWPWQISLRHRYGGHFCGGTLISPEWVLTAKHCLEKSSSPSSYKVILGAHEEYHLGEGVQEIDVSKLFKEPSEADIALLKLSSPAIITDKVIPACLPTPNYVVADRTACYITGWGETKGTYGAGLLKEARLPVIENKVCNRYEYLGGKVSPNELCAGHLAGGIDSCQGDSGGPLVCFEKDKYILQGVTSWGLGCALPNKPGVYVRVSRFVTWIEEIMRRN
Chain of plasmin (pig) (P06867 97-809): as above
Chain of Thrombin (TH) (P00735 44-625): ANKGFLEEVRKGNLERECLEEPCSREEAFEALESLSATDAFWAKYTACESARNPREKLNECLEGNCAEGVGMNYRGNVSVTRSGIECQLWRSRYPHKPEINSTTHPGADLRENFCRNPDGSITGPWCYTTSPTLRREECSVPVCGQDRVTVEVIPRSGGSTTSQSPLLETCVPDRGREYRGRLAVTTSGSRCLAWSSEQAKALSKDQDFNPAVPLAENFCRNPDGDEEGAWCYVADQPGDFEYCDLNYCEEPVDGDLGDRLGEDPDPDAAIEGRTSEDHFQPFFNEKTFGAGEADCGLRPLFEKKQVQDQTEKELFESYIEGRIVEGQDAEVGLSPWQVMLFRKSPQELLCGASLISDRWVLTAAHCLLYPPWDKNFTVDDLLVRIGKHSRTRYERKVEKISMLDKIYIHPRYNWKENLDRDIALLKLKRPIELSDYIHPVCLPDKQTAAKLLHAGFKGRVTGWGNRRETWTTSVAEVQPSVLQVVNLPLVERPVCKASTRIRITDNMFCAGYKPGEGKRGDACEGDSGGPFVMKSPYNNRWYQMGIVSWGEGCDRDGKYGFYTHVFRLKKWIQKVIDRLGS
Chain of Kallikrein (KL) (P00752 8-246): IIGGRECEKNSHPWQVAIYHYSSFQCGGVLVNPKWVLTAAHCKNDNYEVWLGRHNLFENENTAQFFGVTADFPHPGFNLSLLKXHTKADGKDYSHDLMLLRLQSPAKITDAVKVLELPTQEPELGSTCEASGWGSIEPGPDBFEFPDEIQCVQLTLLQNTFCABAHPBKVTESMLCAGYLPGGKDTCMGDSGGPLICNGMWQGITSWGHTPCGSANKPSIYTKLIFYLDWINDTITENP
Chain of Factor-Xa (FXa) (P00743 41-180): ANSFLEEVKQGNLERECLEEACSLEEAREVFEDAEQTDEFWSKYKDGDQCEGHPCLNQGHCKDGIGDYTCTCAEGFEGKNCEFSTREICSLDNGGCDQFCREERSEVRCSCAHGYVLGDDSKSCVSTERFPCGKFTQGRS
Chain of Factor-Xa (FXa) (P00743 234-492): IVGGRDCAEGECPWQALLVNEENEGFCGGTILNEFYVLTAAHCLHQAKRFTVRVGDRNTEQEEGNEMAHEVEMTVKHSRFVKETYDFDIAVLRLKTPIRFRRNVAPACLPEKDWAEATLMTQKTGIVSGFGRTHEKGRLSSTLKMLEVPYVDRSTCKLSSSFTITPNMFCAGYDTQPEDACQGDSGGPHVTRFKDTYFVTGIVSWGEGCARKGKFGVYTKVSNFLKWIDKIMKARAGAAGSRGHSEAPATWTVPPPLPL

Structure (SMILES)	Vmax (× 10^-7) [1]	Relative ratio [1, 7]	Selectivity KL, absorbance (O.D.) at 645 nm [2] [O.D.]	Selectivity PL, absorbance (O.D.) at 645 nm [3] [O.D.]	Selectivity UK, absorbance (O.D.) at 645 nm [4] [O.D.]	Selectivity FXa, absorbance (O.D.) at 645 nm [5] [O.D.]	Selectivity TH, absorbance (O.D.) at 645 nm [6] [O.D.]	Vmax (× 10^7) [1, 8]	Relative ratio [1, 9]	Selectivity KL, absorbance (O.D.) at 405 nm [2] [O.D.]	Selectivity PL, absorbance (O.D.) at 405 nm [3] [O.D.]	Selectivity UK, absorbance (O.D.) at 405 nm [4] [O.D.]	Selectivity FXa, absorbance (O.D.) at 405 nm [5] [O.D.]	Selectivity TH, absorbance (O.D.) at 405 nm [6] [O.D.]	Vmax (× 10^-6) [mole/min/Cu] ([1]; Porcine Plasmin, comparison table in description)	V/Km (× 10^-3) [1, 8]
NCCCC[C@H](NC(=O)[C@H](Cc1ccccc1)NC(=O)[C@H](N)CCCCNC(=O)Cc1ccccc1)C(=O)Nc1ccc(O)c(C(=O)O)c1 [NPC-16]	26.986 × 10^-7	68.162	0.012	0.325	0.001	0.002	0	–	–	–	–	–	–	–	–	–
NCCCC[C@H](NC(=O)[C@H](Cc1ccccc1)NC(=O)[C@H](N)CCCCNS(=O)(=O)c1cccc2ccccc12)C(=O)Nc1ccc(O)c(C(=O)O)c1 [NPC-17]	15.803 × 10^-7	23.874	0.002	0.192	0	0	0	–	–	–	–	–	–	–	–	–
Cc1ccc(S(=O)(=O)NCCC[C@@H](N)C(=O)N[C@@H](Cc2ccccc2)C(=O)N[C@@H](CCCCN)C(=O)Nc2ccc(O)c(C(=O)O)c2)cc1 [NPC-18]	35.252 × 10^-7	58.558	0.019	0.392	0.001	0.002	0	–	–	–	–	–	–	–	–	–
CCCC(=O)NCCCC[C@@H](N)C(=O)N[C@@H](Cc1ccccc1)C(=O)N[C@@H](CCCCN)C(=O)Nc1ccc(O)c(C(=O)O)c1 [NPC-19]	8.266 × 10^-7	31.117	0.004	0.118	0.001	0.002	0.001	–	–	–	–	–	–	–	–	–
NCCCC[C@H](NC(=O)[C@H](Cc1ccccc1)NC(=O)[C@H](N)CCCCNC(=O)OCc1ccccc1)C(=O)Nc1ccc(O)c(C(=O)O)c1 [NPC-20]	40.725 × 10^-7	74.040	0.019	0.467	0.004	0.006	0	–	–	–	–	–	–	–	–	–
CC(C)OC(=O)C[C@@H](N)C(=O)N[C@@H](Cc1ccccc1)C(=O)N[C@@H](CCCCN)C(=O)Nc1ccc(O)c(C(=O)O)c1 [NPC-21]	6.802 × 10^-7	17.414	0.010	0.093	0.004	0.003	0	–	–	–	–	–	–	–	–	–
NCCCC[C@H](NC(=O)[C@H](Cc1ccccc1)NC(=O)[C@H](N)CC(=O)OC1CCCCC1)C(=O)Nc1ccc(O)c(C(=O)O)c1 [NPC-22]	17.991 × 10^-7	42.715	0.023	0.213	0.026	0.015	0	–	–	–	–	–	–	–	–	–
NCCCC[C@H](NC(=O)[C@H](Cc1ccccc1)NC(=O)[C@H](N)CCC(=O)NCCc1ccccc1)C(=O)Nc1ccc(O)c(C(=O)O)c1 [NPC-23]	18.963 × 10^-7	43.045	0.009	0.223	0.004	0.005	0	–	–	–	–	–	–	–	–	–
Cc1ccc(CCNC(=O)CC[C@@H](N)C(=O)N[C@@H](Cc2ccccc2)C(=O)N[C@@H](CCCCN)C(=O)Nc2ccc(O)c(C(=O)O)c2)cc1 [NPC-24]	21.637 × 10^-7	46.748	0.009	0.279	0.004	0.005	0	–	–	–	–	–	–	–	–	–
CS(=O)(=O)NCCCC[C@@H](N)C(=O)N[C@@H](Cc1ccccc1)C(=O)N[C@@H](CCCCN)C(=O)Nc1ccc(O)c(C(=O)O)c1 [NPC-25]	15.803 × 10^-7	43.613	0.006	0.185	0	0	0	–	–	–	–	–	–	–	–	–
Cc1ccc(S(=O)(=O)NCCCC[C@@H](N)C(=O)N[C@@H](CC(C)C)C(=O)N[C@@H](CCCCN)C(=O)Nc2ccc([N+](=O)[O-])cc2)cc1 [NPN-1, HD-Lys(Tos)LeuLysPNA.2HBr] (H-[dK](Tos)-Leu-Lys-pNA)	–	–	–	–	–	–	–	63.600 × 10^7	2.937	0.006	0.457	0.001	0.003	0	–	–
Cc1ccc(S(=O)(=O)NCCCC[C@@H](N)C(=O)N[C@@H](Cc2ccccc2)C(=O)N[C@@H](CCCCN)C(=O)Nc2ccc([N+](=O)[O-])cc2)cc1 [NPN-2, H-D-Lys(ToS)-Phe-Lys PNA.2HBr] (H-[dK](Tos)-Phe-Lys-pNA)	–	–	–	–	–	–	–	47.968 × 10^7	26.517	0.004	0.383	0.001	0.003	0	4.8 × 10^-6 mole/min/Cu	303.595 × 10^-3
NCCCC[C@H](NC(=O)[C@H](Cc1ccccc1)NC(=O)[C@H](N)CCC(=O)OC1CCCCC1)C(=O)Nc1ccc([N+](=O)[O-])cc1 [NPN-3, HD-Glu(CHN)PheLysPNA.2HBr] (HELM PEPTIDE1{[dE].F.K.[O=[N+]([O-])c1ccc(N[*:1])cc1]}|CHEM1{[C1CCC(O[*:1])CC1]}$PEPTIDE1,CHEM1,1:R3-1:R1$$$V2.0)	–	–	–	–	–	–	–	65.287 × 10^7	17.726	0.009	0.466	0.001	0.003	0	–	–
NCCCC[C@H](NC(=O)[C@H](Cc1ccccc1)NC(=O)[C@H](N)CCC(=O)NCCc1ccccc1)C(=O)Nc1ccc([N+](=O)[O-])cc1 [NPN-4] (HELM PEPTIDE1{[dE].F.K.[O=[N+]([O-])c1ccc(N[*:1])cc1]}|CHEM1{[c1ccc(CCN[*:1])cc1]}$PEPTIDE1,CHEM1,1:R3-1:R1$$$V2.0)	–	–	–	–	–	–	–	23.895 × 10^7	7.481	0.010	0.330	0.002	0.006	0.001	–	–

From patent US4605614A, “Method for measuring plasmin” (Nitto Boseki Co., Ltd., priority 1981, dated 1986)
